Source: patent US20230398087A1, “APPLICATION OF BZP IN TREATMENT OF ISCHEMIC CARDIOVASCULAR AND CEREBRAL VASCULAR DISEASES” (priority 2020, published 2023)

System: acute global cerebral ischemia in rats
Assay: Acute global cerebral ischemia in rats, volume of cerebral infarction (nuclear magnetic resonance)
Assay type: in vivo
Settings: BZP 0.75, 3, 12 and 24 mg/kg; Br-NBP 10.5 mg/kg; NBP-K 9.6 mg/kg; vs model group
Description: 2.7 The Protective Effect of BZP on Acute Global Cerebral Ischemia in Rats: […]

SMILES	volume of cerebral infarction
CCCCC1OC(=O)c2cc(Br)ccc21 (centres unmarked) [Br-NBP, reference compound]	significantly reduce
CCCCC(O)c1ccccc1C(=O)[O-].[K+] (centres unmarked) [NBP-K, reference compound]	significantly reduce
